Data published in ChEMBL document CHEMBL1909046, “DrugMatrix in vitro pharmacology data”.

Experiments:
[1] = target: Beta-2 adrenergic receptor (Homo sapiens, UniProt P07550); test: DRUGMATRIX: Adrenergic beta2 radioligand binding (ligand: [3H] CGP-12177); type: cell membranes, Membrane; conditions: cho; Not Active = under 50% inhibition at 10 µM
[2] = target: T1, Alpha-2A adrenergic receptor (Homo sapiens, UniProt P08913); type: cell membranes, Sf9, Membrane; conditions: sf9; also: in other assays of this panel Not Active means under 50% inhibition at 10 µM
T1 sequence (P08913 whole entry): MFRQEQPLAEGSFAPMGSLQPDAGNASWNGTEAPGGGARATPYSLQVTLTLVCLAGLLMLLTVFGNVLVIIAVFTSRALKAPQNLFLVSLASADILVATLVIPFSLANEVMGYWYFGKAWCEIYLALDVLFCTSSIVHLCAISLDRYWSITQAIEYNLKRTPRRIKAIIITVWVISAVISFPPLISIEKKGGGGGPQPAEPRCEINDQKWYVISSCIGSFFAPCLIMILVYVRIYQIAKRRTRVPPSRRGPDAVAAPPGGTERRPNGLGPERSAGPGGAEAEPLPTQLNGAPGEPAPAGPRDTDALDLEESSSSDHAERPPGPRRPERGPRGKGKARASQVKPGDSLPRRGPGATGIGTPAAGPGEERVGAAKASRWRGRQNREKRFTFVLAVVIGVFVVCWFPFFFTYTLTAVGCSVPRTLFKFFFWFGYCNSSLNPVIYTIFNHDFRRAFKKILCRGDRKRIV

[3] = DRUGMATRIX: Purinergic P2X radioligand binding (ligand: [3H] alpha, beta-Methylene-ATP); type: cell membranes, Oryctolagus cuniculus, New Zealand albino, Urinary bladder, Membrane; conditions: Not Active = under 50% inhibition at 10 µM
[4] = DRUGMATRIX: Interleukin IL-1 radioligand binding (ligand: [125I] interleukin 1beta); type: cell membranes, Membrane; conditions: nih3t3; Not Active = under 50% inhibition at 10 µM
D(4) dopamine receptor = target: T2, D(4) dopamine receptor (Homo sapiens, UniProt P21917); test: DRUGMATRIX: Dopamine D4.2 radioligand binding (ligand: [3H] Spiperone); type: cell membranes, Membrane; conditions: cho-k1; Not Active = under 50% inhibition at 10 µM
T2 sequence (P21917 whole entry): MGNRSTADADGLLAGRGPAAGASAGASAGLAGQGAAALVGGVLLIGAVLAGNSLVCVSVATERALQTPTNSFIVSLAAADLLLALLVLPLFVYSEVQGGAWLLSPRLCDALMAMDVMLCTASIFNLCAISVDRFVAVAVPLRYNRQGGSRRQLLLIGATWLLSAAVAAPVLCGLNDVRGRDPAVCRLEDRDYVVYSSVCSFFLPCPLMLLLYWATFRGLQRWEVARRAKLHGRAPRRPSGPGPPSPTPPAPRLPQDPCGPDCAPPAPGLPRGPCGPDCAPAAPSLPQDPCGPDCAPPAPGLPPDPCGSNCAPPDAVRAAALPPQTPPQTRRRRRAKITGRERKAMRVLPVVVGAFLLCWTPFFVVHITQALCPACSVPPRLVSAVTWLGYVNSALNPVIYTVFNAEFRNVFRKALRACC

Substance-P receptor = Substance-P receptor (Homo sapiens, UniProt P25103); type: cell membranes, Membrane; conditions: cho; also: in other assays of this panel Not Active means under 50% inhibition at 10 µM
[5] = target: 5-hydroxytryptamine receptor 4 (Cavia porcellus, UniProt O70528); type: cell membranes, Dunkin-Hartley, Striatum, Membrane; also: in other assays of this panel Not Active means under 50% inhibition at 10 µM
Sequence of 5-hydroxytryptamine receptor 4 (O70528 whole entry): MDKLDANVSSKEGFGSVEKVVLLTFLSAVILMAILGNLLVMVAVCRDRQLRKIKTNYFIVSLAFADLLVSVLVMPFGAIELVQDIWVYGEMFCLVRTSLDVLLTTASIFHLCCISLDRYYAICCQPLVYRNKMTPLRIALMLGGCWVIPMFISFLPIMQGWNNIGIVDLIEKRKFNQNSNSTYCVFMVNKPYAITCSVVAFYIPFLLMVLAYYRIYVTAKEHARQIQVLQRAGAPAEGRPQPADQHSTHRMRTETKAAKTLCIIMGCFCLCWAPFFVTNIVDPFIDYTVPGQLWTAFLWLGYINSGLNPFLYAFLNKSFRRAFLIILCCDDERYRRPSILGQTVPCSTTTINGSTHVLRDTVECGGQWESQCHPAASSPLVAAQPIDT

Sequence of Substance-P receptor (P25103 whole entry): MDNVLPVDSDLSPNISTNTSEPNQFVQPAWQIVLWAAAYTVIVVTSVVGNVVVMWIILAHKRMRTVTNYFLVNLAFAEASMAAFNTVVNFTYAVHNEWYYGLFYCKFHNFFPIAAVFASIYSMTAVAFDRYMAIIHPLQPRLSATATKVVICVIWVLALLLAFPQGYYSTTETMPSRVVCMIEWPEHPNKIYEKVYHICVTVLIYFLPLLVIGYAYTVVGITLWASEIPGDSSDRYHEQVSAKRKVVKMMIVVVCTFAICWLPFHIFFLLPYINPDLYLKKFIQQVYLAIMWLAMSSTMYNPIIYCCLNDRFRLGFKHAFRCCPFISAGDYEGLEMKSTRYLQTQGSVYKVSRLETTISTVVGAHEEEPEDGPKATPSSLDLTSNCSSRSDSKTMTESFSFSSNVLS
Sequence of Beta-2 adrenergic receptor (P07550 whole entry): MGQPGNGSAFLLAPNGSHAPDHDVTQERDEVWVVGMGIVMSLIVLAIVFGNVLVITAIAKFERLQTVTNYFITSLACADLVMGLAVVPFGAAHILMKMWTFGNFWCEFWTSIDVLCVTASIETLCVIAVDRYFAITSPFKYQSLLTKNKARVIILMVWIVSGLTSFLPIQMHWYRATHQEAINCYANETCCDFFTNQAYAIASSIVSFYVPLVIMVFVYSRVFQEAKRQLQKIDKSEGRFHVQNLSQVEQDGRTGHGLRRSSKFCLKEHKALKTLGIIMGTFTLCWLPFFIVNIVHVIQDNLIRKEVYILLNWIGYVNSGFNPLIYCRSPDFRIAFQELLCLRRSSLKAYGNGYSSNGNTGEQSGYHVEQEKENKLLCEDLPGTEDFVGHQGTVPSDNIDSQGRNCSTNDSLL

Row | SMILES | IC50 [1] | IC50 [2] | IC50 [3] | Ki [3] | IC50 [4] | Ki [4] | IC50 (D(4) dopamine receptor) | IC50 (Substance-P receptor) | IC50 [5] | IC50 ([5]; read-out: IC50) [µM] | Ki ([5]; read-out: Ki) [µM]
1 | ClC(Cl)Cl [CHLOROFORM] | Not Active | Not Active | Not Active | Not Active | Not Active | Not Active | Not Active | Not Active | Not Active | – | –
2 | N=C(N)NC(=O)c1nc(Cl)c(N)nc1N [AMILORIDE] | Not Active | Not Active | Not Active | Not Active | Not Active | Not Active | Not Active | Not Active | Not Active | – | –
3 | CCN1CC(CCN2CCOCC2)C(c2ccccc2)(c2ccccc2)C1=O (centres undefined) [DOXAPRAM] | Not Active | Not Active | Not Active | Not Active | Not Active | Not Active | Not Active | Not Active | Not Active | – | –
4 | Cc1ccc(S(=O)(=O)NC(=O)NN2CC3CCCC3C2)cc1 (centres undefined) [GLICLAZIDE] | Not Active | Not Active | Not Active | Not Active | Not Active | Not Active | Not Active | Not Active | Not Active | – | –
5 | COc1cccc2c1C(=O)c1c(O)c3c(c(O)c1C2=O)C[C@@](O)(C(=O)CO)C[C@@H]3O[C@H]1C[C@H](N)[C@H](O)[C@H](C)O1 [DOXORUBICIN] | Not Active | Not Active | Not Active | Not Active | Not Active | Not Active | Not Active | Not Active | – | 12.5 | 2.08
6 | Cn1c(=O)c2c(ncn2CC2OCCO2)n(C)c1=O [DOXOFYLLINE] | Not Active | Not Active | Not Active | Not Active | Not Active | Not Active | Not Active | Not Active | Not Active | – | –
7 | Cc1cc2cc3c(C)cc(=O)oc3c(C)c2o1 [TRIOXSALEN] | Not Active | Not Active | Not Active | Not Active | Not Active | Not Active | Not Active | Not Active | Not Active | – | –
8 | Cc1ncc([N+](=O)[O-])n1CCO [METRONIDAZOLE] | Not Active | Not Active | Not Active | Not Active | Not Active | Not Active | Not Active | Not Active | Not Active | – | –
9 | OC(CCN1CCCCC1)(c1ccccc1)C1CCCCC1 (centres undefined) [TRIHEXYPHENIDYL] | Not Active | Not Active | Not Active | Not Active | Not Active | Not Active | Not Active | Not Active | Not Active | – | –
10 | O=C(C1CCCCC1)N1CC(=O)N2CCc3ccccc3C2C1 (centres undefined) [PRAZIQUANTEL] | Not Active | Not Active | Not Active | Not Active | Not Active | Not Active | Not Active | Not Active | Not Active | – | –
11 | C=C1CC[C@H](O)C/C1=C/C=C1\CCC[C@]2(C)[C@@H]([C@H](C)CCCC(C)C)CC[C@@H]12 [CHOLECALCIFEROL] | Not Active | Not Active | Not Active | Not Active | Not Active | Not Active | Not Active | Not Active | Not Active | – | –
12 | CC(=O)OCC(=O)[C@@]1(O)CC[C@H]2[C@@H]3CCC4=CC(=O)CC[C@]4(C)[C@H]3C(=O)C[C@@]21C [CORTISONE ACETATE] | Not Active | Not Active | Not Active | Not Active | Not Active | Not Active | Not Active | Not Active | Not Active | – | –
